{"source": "patent US20230287003A1", "about": "“BCL6 INHIBITORS” (Cancer Research Technology Limited, priority 2018, published 2023)", "data": [{"biological_target": "human BCL6 BTB domain (Trx-6×His-BCL6) / BCOR-AF633 peptide (Homo sapiens (Human), UniProt P41182)", "assay": "HTRF assay", "type": "binding", "conditions": "1 nM Trx-6×His-BCL6, 300 nM BCOR-AF633 peptide, 2 hours incubation", "experimental": "The % inhibition at each concentration was calculated by normalising FRET ratio to the appropriate high (DMSO with all reagents) and low (DMSO without BCL6) controls.", "values": [{"compound": "Cn1c(=O)c2c(c3cc(Nc4ccnc(Cl)c4C#N)ccc31)NC(C1CCC1)CO2", "note": "(stereo not drawn) [Example 1n, 2-chloro-4-((2-cyclobutyl-6-methyl-5-oxo-2,3,5,6-tetrahydro-1H-[1,4]oxazino[2,3-c]quinolin-9-yl)amino)nicotinonitrile]", "HTRF avg pIC50 (1 nM)": 5.70}, {"compound": "Cn1c(=O)c2c(c3cc(Nc4ccnc(Cl)c4C#N)ccc31)NC1(CCOC1)CCO2", "note": "(stereo not drawn) [Example 1o, 2-chloro-4-((7′-methyl-6′-oxo-3′,4,4′,5,6′,7′-hexahydro-1′H,2H-spiro[furan-3,2′-[1,4]oxazepino[2,3-c]quinolin]-10′-yl)amino)nicotinonitrile]", "HTRF avg pIC50 (1 nM)": 6.14}, {"compound": "Cn1c(=O)c2c(c3cc(Nc4ccnc(Cl)c4C#N)ccc31)NC(C(F)F)CCO2", "note": "(stereo not drawn) [Example 1p, 2-chloro-4-((2-(difluoromethyl)-7-methyl-6-oxo-1,2,3,4,6,7-hexahydro-[1,4]oxazepino[2,3-c]quinolin-10-yl)amino)nicotinonitrile]", "HTRF avg pIC50 (1 nM)": 5.67}, {"compound": "CC1CSc2c(c3cc(Nc4ccnc(Cl)c4C#N)ccc3n(C)c2=O)N1", "note": "(stereo not drawn) [Example 1t, 2-chloro-4-((2,6-dimethyl-5-oxo-2,3,5,6-tetrahydro-1H-[1,4]thiazino[2,3-c]quinolin-9-yl)amino)nicotinonitrile]", "HTRF avg pIC50 (1 nM)": 6.00}, {"compound": "C[C@H]1CCOc2c(c3cc(Nc4cc(C(=O)O)nc(Cl)c4C#N)ccc3n(C)c2=O)N1", "note": "[Example 2a, (S)-6-chloro-5-cyano-4-((2,7-dimethyl-6-oxo-1,2,3,4,6,7-hexahydro-[1,4]ox-azepino[2,3-c]quinolin-10-yl)amino)picolinic acid]", "HTRF avg pIC50 (1 nM)": 7.26}, {"compound": "Cn1c(=O)c2c(c3cc(Nc4ccncc4Cl)ccc31)N[C@@H](C1CC1)C(F)(F)CO2", "note": "[Example 4d, (S)-10-((3-chloropyridin-4-yl)amino)-2-cyclopropyl-3,3-difluoro-7-methyl-1,2,3,4-tetrahydro-[1,4]oxazepino[2,3-c] quinolin-6(7H)-one]", "HTRF avg pIC50 (1 nM)": 7.99}, {"compound": "COCC1(C)CCOc2c(c3cc(Nc4nc(-n5ccc(C(F)(F)F)n5)ncc4Cl)ccc3n(C)c2=O)N1", "note": "(stereo not drawn) [Example 5b, 10-((5-chloro-2-(3-(trifluoromethyl)-1H-pyrazol-1-yl)pyrimidin-4-yl)amino)-2-(methoxymethyl)-2,7-dimethyl-1,2,3,4-tetrahydro-[1,4]oxazepino[2,3-c]quinolin-6(7H)-one]", "HTRF avg pIC50 (1 nM)": 6.09}, {"compound": "Cn1c(=O)c2c(c3cc(Nc4nc(-n5ccc(C(F)(F)F)n5)ncc4Cl)ccc31)NC1(CCOC1)CCO2", "note": "(stereo not drawn) [Example 5j, 10′-((5-chloro-2-(3-(trifluoromethyl)-1H-pyrazol-1-yl)pyrimidin-4-yl)amino)-7′-methyl-3′,4,4′,5-tetrahydro-1′H,2H-spiro[furan-3,2′-[1,4]oxazepino[2,3-c]quinolin]-6′(7′H)-one]", "HTRF avg pIC50 (1 nM)": 5.79}, {"compound": "C[C@H]1COC(=O)c2c(c3cc(Nc4ccnc(Cl)c4C#N)ccc3n(C)c2=O)N1", "note": "[Example 6a, (S)-2-chloro-4-((2,7-dimethyl-5,6-dioxo-1,2,3,5,6,7-hexahydro-[1,4]oxazepino[6,5-c]quinolin-10-yl)amino)nicotinonitrile]", "HTRF avg pIC50 (1 nM)": 7.01}, {"compound": "Cn1c(=O)c2c(c3cc(Nc4ccnc(Cl)c4C#N)ccc31)NC(C1CC1)COC2=O", "note": "(stereo not drawn) [Example 6c, 2-chloro-4-((2-cyclopropyl-7-methyl-5,6-dioxo-1,2,3,5,6,7-hexahydro-[1,4]oxazepino[6,5-c]quinolin-10-yl)amino)nicotinonitrile]", "HTRF avg pIC50 (1 nM)": 6.71}]}, {"biological_target": "human BCL6 BTB domain (Trx-6×His-BCL6) / BCOR-AF633 peptide (Homo sapiens (Human), UniProt P41182)", "assay": "HTRF assay", "type": "binding", "conditions": "HTRF avg pIC50 (1 nM), 1 nM Trx-6×His-BCL6, 300 nM BCOR-AF633 peptide, 2 hours incubation", "units": {"IC50": "nM"}, "values": [{"compound": "Cn1c(=O)c2c(c3cc(Nc4cc(C(=O)O)nc(Cl)c4C#N)ccc31)N[C@@H](C1CC1)CCO2", "note": "[Example 2b, (R)-6-chloro-5-cyano-4-((2-cyclopropyl-7-methyl-6-oxo-1,2,3,4,6,7-hexahydro-[1,4]oxazepino[2,3-c]quinolin-10-yl)amino)picolinic acid]", "IC50": 8.91}, {"compound": "Cn1c(=O)c2c(c3cc(Nc4ccnc(Cl)c4C#N)ccc31)N[C@@H](C1CC1)COC2=O", "note": "[Example 6b, (S)-2-chloro-4-((2-cyclopropyl-7-methyl-5,6-dioxo-1,2,3,5,6,7-hexahydro-[1,4]oxazepino[6,5-c]quinolin-10-yl)amino)nicotinonitrile]", "IC50": 166}]}]}
